Source: PMC12888861, “Antibacterial activity of enmetazobactam against Acinetobacter spp.: a molecular dissection of mechanism of action and resistance determinants” (Antimicrobial Agents and Chemotherapy, 2025)

Key:
[1] = tested on: A. baumannii ATCC 19606 cells; assay: Cell morphology assay, bright-field microscopy; assay type: cell-based, Acinetobacter baumannii; conditions: A. baumannii ATCC 19606, overnight exposure at 1× MIC
Experimental: In order to confirm the involvement of PBPs as targets of enmetazobactam, cell morphology assays involving exposure to enmetazobactam and sulbactam were performed following the methodology described in Supplementary materials and methods.
To confirm the involvement of PBPs as targets of enmetazobactam, the cellular morphology of A. baumannii ATCC 19606 reference strain was analyzed after exposure to the compound at different concentrations. Bright-field microscopy was used to monitor the cell morphology. […] For microscopic visualization, aliquots of each sample were obtained, stained with crystal violet solution and observed using an Olympus BX61 microscope (Olympus).
Changes in cell morphology were determined on the basis of alterations in septal integrity, abnormal elongation, spheroplast formation and filamentation, patterns previously associated with the selective inhibition of PBP1, PBP2 and PBP3 in Gram-negative bacilli. Specifically, PBP1 inhibition has been linked to cell lysis, PBP2 inhibition has been linked to spherification, and PBP3 inhibition to defective cell division and filament formation (1, 2). The results were qualitatively compared across different treatments to infer the potential selectivity of enmetazobactam for specific PBPs.

[2] = tested on: carbapenem-susceptible A. baumannii isolates (n = 54); assay: MIC, broth microdilution (EUCAST), carbapenem-susceptible A. baumannii isolates; assay type: cell-based, Acinetobacter baumannii; conditions: for MIC: in combinations ETZ fixed at 8 mg/L
Excerpt: The bacterial strains used in this study comprised 208 clinical isolates from the Spanish National Acinetobacter spp. 2020 Multicenter Collection, which was previously characterized in detail by our research group, including whole-genome sequencing, phylogenetics studies, clonal dynamics, and resistance mechanisms ([2], [29]). Additionally, a collection of A. baumannii ATCC 17978 transformants coding the blaOXA-23, blaOXA-24/40, blaOXA-51, blaOXA-58, blaOXA-143, and blaOXA-201 genes, previously constructed and described by our group ([30]), was used to determine the activity of enmetazobactam against strains carrying the main CHDLs of A. baumannii.
The antimicrobial susceptibility of the 208 Acinetobacter spp. isolates was assessed using the broth microdilution method, as described in the European Committee on Antimicrobial Susceptibility Testing (EUCAST) v.15 guidelines (http://www.eucast.org/clinical_breakpoints). […] MICs for enmetazobactam alone were assessed as well. […] Subsequently, MIC testing was also conducted with a collection of A. baumannii ATCC 17978 transformants expressing clinically relevant OXA-like carbapenemase genes.
The A. baumannii ATCC 19606 strain was used as the reference strain in all susceptibility experiments, in duplicate assays. Antibiotics were purchased from Sigma-Aldrich, except enmetazobactam and durlobactam, which were obtained from Advanz Pharma and MedChemExpress, respectively.

[3] = Acinetobacter baumannii, carbapenem-susceptible A. baumannii isolates (n = 54), ETZ fixed 8 mg/L in combinations

C[C@@H](O)[C@H]1C(=O)N2C(C(=O)O)=C(SCCN=CN)C[C@H]12 [imipenem]
cell morphology [1]: rounded and spherical cells
MIC distribution 0.12 [2]: 61.1
MIC ([2]; Acinetobacter baumannii, isolate Ab1, ST 164, ADC-6, OXA-91): 0.12 µg/mL
MIC ([2]; Acinetobacter baumannii, isolate Ab11, ST 239, ADC-2, OXA-51): 0.12 µg/mL
MIC ([2]; Acinetobacter baumannii, isolate Ab34, ST 2182, ADC-2, OXA-130): 0.25 µg/mL
MIC ([2]; Acinetobacter baumannii, isolate Ab38, ST 866, ADC-2, OXA-385): 0.25 µg/mL
MIC ([2]; Acinetobacter baumannii, isolate Ab40, ST 2176, ADC-2, OXA-64): 0.25 µg/mL
MIC ([2]; Acinetobacter baumannii, isolate Ab50, ST 2176, ADC-2, OXA-64): 0.25 µg/mL
MIC ([2]; Acinetobacter baumannii, isolate Ab57, ST 1470, ADC-58, OXA-106): 0.25 µg/mL
MIC ([2]; Acinetobacter baumannii, isolate Ab58, ST 6, ADC-2, OXA-94): 0.25 µg/mL
MIC ([2]; Acinetobacter baumannii, isolate Ab61, ST 1639, ADC-7, OXA-64): 0.12 µg/mL
MIC ([2]; Acinetobacter baumannii, isolate Ab62, ST 265, ADC-2, OXA-91): 0.25 µg/mL
MIC ([2]; Acinetobacter baumannii, isolate Ab67, ST 1, ADC-11, OXA-69): 0.25 µg/mL
MIC ([2]; Acinetobacter baumannii, isolate Ab79, ST 106, ADC-11, OXA-78): 0.12 µg/mL
MIC ([2]; Acinetobacter baumannii, isolate Ab80, ST 2182, ADC-6, OXA-208): 0.12 µg/mL
MIC ([2]; Acinetobacter baumannii, isolate Ab81, ST 25, ADC-79, OXA-64): 0.12 µg/mL
MIC ([2]; Acinetobacter baumannii, isolate Ab93, ST 25, ADC-79, OXA-64): 0.12 µg/mL
MIC ([2]; Acinetobacter baumannii, isolate Ab95, ST 582, ADC-5, OXA-317): 0.12 µg/mL
MIC ([2]; Acinetobacter baumannii, isolate Ab96, ST 582, ADC-5, OXA-317): 0.12 µg/mL
MIC ([2]; Acinetobacter baumannii, isolate Ab100, ST 145, ADC-58, OXA-343): 0.12 µg/mL
MIC ([2]; Acinetobacter baumannii, isolate Ab110, ST 1623, ADC-3, OXA-70): 0.25 µg/mL
MIC ([2]; Acinetobacter baumannii, isolate Ab112, ST 193, ADC-like, OXA-120): 0.12 µg/mL
MIC ([2]; Acinetobacter baumannii, isolate Ab124, ST 2176, ADC-2, OXA-64): 0.12 µg/mL
MIC ([2]; Acinetobacter baumannii, isolate Ab127, ST 2176, ADC-2, OXA-64): 0.12 µg/mL
MIC ([2]; Acinetobacter baumannii, isolate Ab128, ST 2176, ADC-2, OXA-64): 0.12 µg/mL
MIC ([2]; Acinetobacter baumannii, isolate Ab130, ST 32, ADC-79, OXA-100): 0.12 µg/mL
MIC ([2]; Acinetobacter baumannii, isolate Ab131, ST 687, ADC-like, OXA-208): 0.12 µg/mL
MIC ([2]; Acinetobacter baumannii, isolate Ab132, ST 1112, ADC-79, OXA-89): 0.12 µg/mL
MIC ([2]; Acinetobacter baumannii, isolate Ab136, ST 2183, ADC-like, OXA-66): 0.12 µg/mL
MIC ([2]; Acinetobacter baumannii, isolate Ab139, ST 54, ADC-like, OXA-365): 0.25 µg/mL
MIC ([2]; Acinetobacter baumannii, isolate Ab142, ST 1, ADC-like, OXA-69): 1 µg/mL
MIC ([2]; Acinetobacter baumannii, isolate Ab143, ST 1328, ADC-76, OXA-408): 0.12 µg/mL
MIC ([2]; Acinetobacter baumannii, isolate Ab149, ST 1112, ADC-6, OXA-407): 0.25 µg/mL
MIC ([2]; Acinetobacter baumannii, isolate Ab150, ST 2184, ADC-like, OXA-64): 0.25 µg/mL
MIC ([2]; Acinetobacter baumannii, isolate Ab152, ST 132, ADC-2, OXA-120): 0.25 µg/mL
MIC ([2]; Acinetobacter baumannii, isolate Ab158, ST 2034, ADC-2, OXA-217): ≤ 0.06 µg/mL
MIC ([2]; Acinetobacter baumannii, isolate Ab163, ST 132, ADC-2, OXA-120): ≤ 0.06 µg/mL
MIC ([2]; Acinetobacter baumannii, isolate Ab167, ST 1623, ADC-like, OXA-345): 0.12 µg/mL
MIC ([2]; Acinetobacter baumannii, isolate Ab168, ST 1470, ADC-75, OXA-402): 0.25 µg/mL
MIC ([2]; Acinetobacter baumannii, isolate Ab170, ST 2110, ADC-4, OXA-338): 0.12 µg/mL
MIC ([2]; Acinetobacter baumannii, isolate Ab172, ST 2185, ADC-5, OXA-217): ≤ 0.06 µg/mL
MIC ([2]; Acinetobacter baumannii, isolate Ab185, ST 2, ADC-26, OXA-66): 0.25 µg/mL
MIC ([2]; Acinetobacter baumannii, isolate Ab187, ST 105, ADC-2, OXA-430): ≤ 0.06 µg/mL
MIC ([2]; Acinetobacter baumannii, isolate Ab188, ST 203, ADC-6, OXA-217, PDC-1): 0.12 µg/mL
MIC ([2]; Acinetobacter baumannii, isolate Ab189, ST 1405, ADC-3, OXA-120): ≤ 0.06 µg/mL
MIC ([2]; Acinetobacter baumannii, isolate Ab190, ST 2186, ADC-6, OXA-413): 0.25 µg/mL
MIC ([2]; Acinetobacter baumannii, isolate Ab193, ST 164, ADC-6, OXA-91): ≤ 0.06 µg/mL
MIC ([2]; Acinetobacter baumannii, isolate Ab195, ST 1, ADC-11, OXA-69): 0.12 µg/mL
MIC ([2]; Acinetobacter baumannii, isolate Ab200, ST 1336, ADC-2, OXA-51): 0.12 µg/mL
MIC ([2]; Acinetobacter baumannii, isolate Ab202, ST 1, ADC-11, OXA-69): 0.12 µg/mL
MIC ([2]; Acinetobacter baumannii, isolate Ab203, ST 221, ADC-6, OXA-88): 0.12 µg/mL
MIC ([2]; Acinetobacter baumannii, isolate Ab206, ST 2187, ADC-58, OXA-69): 0.25 µg/mL
MIC ([2]; Acinetobacter baumannii, isolate Ab209): 0.25 µg/mL
MIC ([2]; Acinetobacter baumannii, isolate Ab213): 0.12 µg/mL
MIC ([2]; Acinetobacter baumannii, isolate Ab218): 0.25 µg/mL
MIC ([2]; Acinetobacter baumannii, isolate Ab220): 0.25 µg/mL
MIC50 [2, 3]: 0.12 µg/mL
MIC90 [2, 3]: 0.25 µg/mL
MIC distribution 0.25 ([2]; cumulative share of carbapenem-susceptible A. baumannii isolates (n = 54) at MIC 0.25 mg/L, ETZ fixed 8 mg/L in combinations): 98.1
MIC distribution 0.5 ([2]; cumulative share of carbapenem-susceptible A. baumannii isolates (n = 54) at MIC 0.5 mg/L, ETZ fixed 8 mg/L in combinations): 98.1
MIC distribution 1 ([2]; cumulative share of carbapenem-susceptible A. baumannii isolates (n = 54) at MIC 1 mg/L, ETZ fixed 8 mg/L in combinations): 100
MIC distribution 2 ([2]; cumulative share of carbapenem-susceptible A. baumannii isolates (n = 54) at MIC 2 mg/L, ETZ fixed 8 mg/L in combinations): 100
MIC distribution 4 ([2]; cumulative share of carbapenem-susceptible A. baumannii isolates (n = 54) at MIC 4 mg/L, ETZ fixed 8 mg/L in combinations): 100
MIC distribution 8 ([2]; cumulative share of carbapenem-susceptible A. baumannii isolates (n = 54) at MIC 8 mg/L, ETZ fixed 8 mg/L in combinations): 100
MIC distribution 16 ([2]; cumulative share of carbapenem-susceptible A. baumannii isolates (n = 54) at MIC 16 mg/L, ETZ fixed 8 mg/L in combinations): 100
MIC distribution ≤0.06 ([2]; cumulative share of carbapenem-susceptible A. baumannii isolates (n = 54) at MIC ≤0.06 mg/L, ETZ fixed 8 mg/L in combinations): 11.1
MIC distribution ≥32 ([2]; cumulative share of carbapenem-susceptible A. baumannii isolates (n = 54) at MIC ≥32 mg/L, ETZ fixed 8 mg/L in combinations): 100
